# Source: patent US4016193A, “Novel substituted phenylacetic acid derivatives and a process for preparing thereof” (Mitsubishi Yuka Pharmaceutical Co., Ltd., priority 1974, dated 1977)
# Read-outs that look alike come from different tables or passages of the source.
# What was measured:
# carrageenin edema = test: Anti-inflammatory activity: inhibition of carrageenin edema of the rat paw, oral; format: in vivo, wistar male rats; conditions: read-out: inhibiting rate; for inhibition in vivo at 100 mg/kg: 100 mg/kg orally; for inhibition in vivo at 100 mg/kg / inhibition in vivo at 12.5 mg/kg / inhibition in vivo at 25 mg/kg / inhibition in vivo at 50 mg/kg: rats, 4 hours after carrageenin; for inhibition in vivo at 12.5 mg/kg: 12.5 mg/kg orally; for inhibition in vivo at 25 mg/kg: 25 mg/kg orally; for inhibition in vivo at 50 mg/kg: 50 mg/kg orally
# Experimental: The anti-inflamatory activity is shown by inhibiting rate calculated from measurement of carrageenin edema intensity. Five wistar male rats having body weight of 120 - 180g are defined as one group and after fasted for 18 hours, the sample containing a 1% tragacanth solution such as is suspended so as to become 5 ml/kg was administered orally to the said group. Only the same volume of the 1% tragacanth solution was administered to the control group. After one hour, 0.05 ml of a 1% carrageenin (manufactured by Picnin-A, Pasco International Corp.) was injected subcutaneously to the plantar legion of right hind paw of rats. Before injection and after 4 hours of injection of carrageenin, the right hind paw volume was measured by means of paw volume measurement instrument manufactured by Ugo-Basile and an increase % of paw volume was calculated. The inhibiting rate was calculated from an increase ratio of the examined group against the central groups.
# in vivo = conditions: rat, po, orally, rats
# [1] = tested on: writhing syndrome caused by acetic acid; test: Analgesic activity, acetic acid writhing method, oral; format: in vivo, dd origin male mice; conditions: for ED50: Mus musculus, po, read-out: ED50 (analgesic activity); for activity ratio: ratio of ED50 values, methyl 3-nitro-4-allyloxyphenylacetate defined as 1
# Experimental: (b) The analgesic activity was measured by means of acetic and writhing
# 10dd origin male mice weighing 17 -
# 25g were used as one group after 18 hours of fasting. After oral
# administration of the test compounds the frequencies of writhing syndrome
# caused by intraperitoneal administration of 0.1 ml/10g of a 0.6% acetic
# acid were measured for 20 minutes. The frequencies of writhing syndrome
# which are below 50% of those of the control group were defined as
# analgesic activity (+) and the ED50 values were calculated by means of
# Litchfield-Wilcoxon method. The ED50 value of methyl
# 3-nitro-4-allyloxyphenylacetate is defined as 1 and the activity ratios of
# the test compounds were expressed as ratio of ED50 values. The test
# compounds were administered as a suspension such as are adjusted to be 0.1
# ml/10g in a 1% tragacanth solution. A 1% tragacanth solution was
# administered to the control group.
# [2] = orally, mice, 0.6% acetic acid i.p., Litchfield-Wilcoxon method
smiles,measurement,setting,value
C=CCOc1ccc(CC(N)=O)cc1[N+](=O)[O-] [3-nitro-4-allyloxyphenylacetamide],inhibition in vivo at 100 mg/kg,carrageenin edema,37.7%
C=CCOc1ccc(CC(=O)OC)cc1[N+](=O)[O-] [Methyl 3-nitro-4-allyloxyphenylacetate],inhibition in vivo at 12.5 mg/kg,carrageenin edema,51.7%
same,inhibition in vivo at 25 mg/kg,carrageenin edema,72.1%
same,LD50,in vivo; female,> 3000 mg/kg
same,LD50,in vivo; male,> 3000 mg/kg
same,ED50,[1]; [2],31 mg/kg
COc1ccc2c(c1)c(CC(=O)O)c(C)n2C(=O)c1ccc(Cl)cc1 [Indomethacine],inhibition in vivo at 1 mg/kg,carrageenin edema; 4 h,39.8%
same,inhibition in vivo at 3 mg/kg,carrageenin edema; 4 h,46%
same,inhibition in vivo at 9 mg/kg,carrageenin edema; 4 h,60.4%
Cc1c(N(C)C)c(=O)n(-c2ccccc2)n1C [Aminopyrine],ED50,[1]; [2],80 mg/kg
same,activity ratio,[1],0.38
C=CCOc1ccc(C(C)C(=O)OC)cc1[N+](=O)[O-] (stereo not shown) [Methyl 2-(3-nitro-4-allyoxyphenyl)propionate],inhibition in vivo at 100 mg/kg,carrageenin edema,50.1%
C=CCOc1ccc(CC(=O)O)cc1[N+](=O)[O-] [3-Nitro-4-allyloxyphenylacetic acid],inhibition in vivo at 12.5 mg/kg,carrageenin edema,13.9%
same,inhibition in vivo at 25 mg/kg,carrageenin edema,24.3%
same,inhibition in vivo at 50 mg/kg,carrageenin edema,66.6%
same,LD50,in vivo; female,1360 mg/kg
same,LD50,in vivo; male,1480 mg/kg
same,ED50,[1]; [2],96 mg/kg
same,activity ratio,[1],0.32
CCCCC1C(=O)N(c2ccccc2)N(c2ccccc2)C1=O [Phenylbutazone],inhibition in vivo at 12.5 mg/kg,carrageenin edema,14.1%
same,inhibition in vivo at 25 mg/kg,carrageenin edema,49.1%
same,inhibition in vivo at 50 mg/kg,carrageenin edema,59.4%
C=CCOc1ccc(C(C)C(=O)OCC)cc1[N+](=O)[O-] (stereo not shown) [Ethyl 2-(3-nitro-4-allyloxyphenyl)propionate],inhibition in vivo at 100 mg/kg,carrageenin edema,55.5%
C=CCOc1ccc(C(C)C(=O)O)cc1[N+](=O)[O-] (stereo not shown) [2-(3-nitro-4-allyloxyphenyl)propionic acid],inhibition in vivo at 100 mg/kg,carrageenin edema,40.1%
C=CCOc1ccc(CC(=O)O)cc1Cl [3-chloro-4-allyloxyphenylacetic acid],inhibition in vivo at 25 mg/kg,carrageenin edema,47%
same,inhibition in vivo at 50 mg/kg,carrageenin edema,51.8%
same,inhibition in vivo at 100 mg/kg,carrageenin edema,62%
same,ED50,[1]; [2],56.8 mg/kg
C#CCOc1ccc(CC(=O)O)cc1[N+](=O)[O-] [3-Nitro-4-propargyloxyphenylacetic acid],inhibition in vivo at 50 mg/kg,carrageenin edema,28.8%
same,inhibition in vivo at 100 mg/kg,carrageenin edema,40.3%
COc1cc(C)nc(-n2nc(C)cc2OC)n1 [Mepirizole],inhibition in vivo at 25 mg/kg,carrageenin edema,19.5%
same,inhibition in vivo at 50 mg/kg,carrageenin edema,51.8%
same,inhibition in vivo at 100 mg/kg,carrageenin edema,52.7%
same,LD50,in vivo; female,971 mg/kg
same,LD50,in vivo; male,1020 mg/kg
same,ED50,[1]; [2],117 mg/kg
same,activity ratio,[1],0.26
C#CCOc1ccc(CC(=O)OC)cc1[N+](=O)[O-] [Methyl 3-nitro-4-propargyloxyphenylacetate],inhibition in vivo at 100 mg/kg,carrageenin edema,44.9%
CC(=O)Oc1ccccc1C(=O)O [Aspirin],ED50,[1],320 mg/kg
same,activity ratio,[1],0.09
